Experimental findings from ChEMBL document CHEMBL1806490, “Benzisothiazolones as modulators of macrophage migration inhibitory factor” (Bioorg Med Chem Lett, 2011) are described below.

In assay [1] the target is T1, MIF/CD74 (Macrophage migration inhibitory factor and HLA-DR antigens-associated invariant chain) (Homo sapiens) (UniProt P14174+P04233). The conditions noted are these: 4 nM.
Description: Inhibition of human recombinant biotinylated MIF/CD74 ectodomain interaction at 4 nM by streptavidin alkaline phosphatase reporter system
The target in assay [2] is T2, Macrophage migration inhibitory factor (Homo sapiens, UniProt P14174).
T2 sequence (P14174 whole entry): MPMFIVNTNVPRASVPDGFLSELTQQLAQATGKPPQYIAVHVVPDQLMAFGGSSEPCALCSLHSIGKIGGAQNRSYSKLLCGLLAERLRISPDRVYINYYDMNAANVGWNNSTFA
The assay is described as follows: Inhibition of human recombinant MIF tautomerase activity using 4-hydroxyphenylpyruvate as substrate.

The target of assay [3] is T1, MIF/CD74 (Macrophage migration inhibitory factor and HLA-DR antigens-associated invariant chain) (Homo sapiens). The conditions noted are these: 78 nM.
Description: Inhibition of human recombinant biotinylated MIF/CD74 ectodomain interaction at 78 nM by streptavidin alkaline phosphatase reporter system

In assay [1], `O=c1c2ccc(O)cc2sn1-c1ccc(Cl)cc1` returned an inhibition of 23%. As for `COc1cccc(-n2sc3ccc(F)cc3c2=O)c1`, in assay [2], the IC50 came out at 2.8 µM. In the case of `COc1cccc(-n2sc3cc(F)ccc3c2=O)c1`, in assay [2], the IC50 is 25 µM.

For the compound `O=c1c2cccc(F)c2sn1-c1ccc(Cl)cc1`, the IC50 in assay [2] came out at 2.8 µM. On to `COc1ccc(-n2sc3ccc(F)cc3c2=O)cc1`, for which, in assay [2], the IC50 was determined as 6.5 µM. Turning to `O=c1c2ccc(Br)cc2sn1-c1ccc(Cl)cc1`, the IC50 in assay [2] worked out at 11 µM.

Turning to `O=c1c2cc(F)c(F)cc2sn1-c1ccc(Cl)cc1`, the IC50 in assay [2] was determined as 4.9 µM.

As for `O=c1c2cc(Br)ccc2sn1-c1ccc(Cl)cc1`, the IC50 in assay [2] was determined as 7.9 µM. Consider `O=c1c2ccc(F)c(F)c2sn1-c1ccc(Cl)cc1`, for which the IC50 in assay [2] amounted to 5.6 µM. Consider `N#Cc1ccc2c(=O)n(-c3ccc(Cl)cc3)sc2c1`, for which the IC50 in assay [2] came to 3.1 µM. Same read-out and setting: under `COCc1cccc(-n2sc3cc(F)ccc3c2=O)c1` stands 2.4 µM. Consider `O=c1c2cccc(Cl)c2sn1-c1ccc(Cl)cc1`, for which the IC50 in assay [2] was found to be 6.6 µM.

Turning to `CC(=O)OCc1cccc(-n2sc3cc(F)ccc3c2=O)c1`, the IC50 in assay [2] was 2.3 µM. Compound `N#Cc1ccc(-n2sc3cc(F)ccc3c2=O)cc1` returned an inhibition in assay [3] of 49%. Take `O=c1c2cc(F)ccc2sn1-c1ccc(Cl)cc1`: in assay [2], the IC50 was 5.6 µM.

As to `O=c1c2cccc(F)c2sn1-c1cccc(O)c1`, the IC50 in assay [2] worked out at 5.9 µM. Take `N#Cc1ccc2sn(-c3ccc(Cl)cc3)c(=O)c2c1`: in assay [2], the IC50 came to 19 µM. As for `COc1cccc(-n2sc3c(F)cccc3c2=O)c1`, the IC50 in assay [2] is 8 µM. On the same count and under the same terms, under `O=c1c2cc([N+](=O)[O-])ccc2sn1-c1ccc(Cl)cc1` stands 6.2 µM; under `O=c1c2ccc(F)cc2sn1-c1cccc(Cl)c1`, 5 µM.
